From patent US11779649B2, “Antibodies to PMEL17 and conjugates thereof” (Novartis AG, priority 2018, dated 2023)
Where two headings read alike, the source gives them in different places. Starred links: 1 amine or outer side, 2 acyl side, 3 side chain; linkers in the order of their positions; H or OH if unused. Positions of bridges follow the written chain, without caps; N, C: chain ends. Non-standard residues stand in square brackets, D forms with d. Residues, ends and D or L forms follow the SMILES beside them. *: point of attachment. Leu(3R-OH,Nα-propionyl) = CCC(=O)N[C@H](C(=O)*)[C@H](O)C(C)C; X1 = CC(C)[C@@H](O[*:3])[C@H](N[*:1])C(=O)[*:2]; NMeT = CN[C@H](C(=O)O)[C@@H](C)O; dPhLac = O=C(O)[C@H](O)Cc1ccccc1; NMeA = CN[C@@H](C)C(=O)O; NMeDha = C=C(NC)C(=O)O

Columns and labels:
[1] = tested on: MIAPACA pancreatic ductal adenocarcinoma cells; assay: Resazurin-based viability assay, MIAPACA cells; type: cell-based; settings: Homo sapiens, MIA PaCa-2, WT, 96 or 120 hours, Table 4
Procedure: 92.1 uveal melanoma and MIAPACA pancreatic ductal adenocarcinoma cells were seeded at low cell density in 96-well plates and treated with increasing concentrations of Compound (A1) or Compound (A2) as indicated. Following drug treatment for 96 or 120 hours, cell viability and proliferation were determined using a resazurin-based viability assay. Briefly, cells were incubated with a resazurin-based solution and color change was detected by absorbance with a spectrophotometer and used as a readout of cell viability. Data presented as mean of 3 independent replicates and relative to PBS-treated cells (control).

92.1 cells = assay: Annexin V flow cytometry apoptosis assay, 92.1 cells; type: cell-based; settings: 92.1 and MIAPACA cells, FIG. 2
Procedure: (§1) 92.1 and MIAPACA cells were seeded in 96-well plates (5000 cells per well) and treated with increasing concentrations of Compound (A1), Compound (A2), and a fixed dose of Staurosporine (100 nM, positive control) as indicated. Following drug treatment for 96, cells were subjected to fluorescence-activated flow cytometry using an Annexin V antibody conjugated to a fluorescent dye. Data presented as mean of 3 independent replicates.
as §1, with “92.1” for “92.1 and MIAPACA”, “3207-(B1) (Isotype control), G4-(B1),” for “Compound (A2),”, “G1-(B1)” for “a fixed dose of Staurosporine (100 nM, positive control)”

GNAQ/11 = assay: IP1 levels by TR-FRET in 92.1 uveal melanoma cells; type: cell-based; settings: 92.1 cells, overnight treatment, FIG. 3A
Procedure: (§2) 92.1 uveal melanoma were treated with increasing concentrations of Compound (A1) or Compound (A2) as indicated. Following drug treatment overnight, cells were processed for determination of IP1 levels using TR-FRET (time-resolved fluorescent resonance energy transfer) or protein levels by western-blotting.
92.1 uveal melanoma were treated with DMSO, Compound (A1) (8 nM) and increasing concentrations of Isotype-(B1), anti-PMEL17-(B1) and anti-PMEL17-(B2) ADCs as indicated. Following drug treatment for 2 days, cells were processed for determination of IP1 levels using TR-FRET (time-resolved fluorescent resonance energy transfer). IP1 levels (nM) are presented as mean of 3 independent replicates.

92.1 uveal melanoma = assay: Resazurin-based viability assay, 92.1 uveal melanoma cells; type: cell-based
Procedure: (§3) Following drug treatment for 96 or 120 hours, cell viability and proliferation were determined using a resazurin-based viability assay. Briefly, cells were incubated with a resazurin-based solution and color change was detected by absorbance with a spectrophotometer and used as a readout of cell viability. Data presented as mean of 3 independent replicates and relative to PBS-treated cells (control).
as §3, with “(control) (FIG. 6).” for “(control).”
Following drug treatment for 96 or 120 hours, cell viability and proliferation were determined using a resazurin-based viability assay. Data presented as mean of 3 independent replicates and relative to PBS-treated cells (control) (FIG. 8).
as §3

ERK signaling = assay: Western-blotting of 92.1 cells, ERK signaling; type: cell-based; settings: FIG. 3C
Procedure: as §2

[2] = tested on: Human Platelet Rich Plasma (PRP); settings: human PRP, 0.1, 1 and 150 nM, 4, 16 or 24 h, TRAP6 32 uM, FIG. 11
Procedure: Platelet aggregation was then measured following treatment with Thrombin Receptor Activating Peptide 6 (TRAP6) at 32 uM.

[3] = Plasma stability of Compound (A1) in mouse, rat, monkey and human plasma compared to buffer; type: in vitro ADME; settings: over 24 h, FIG. 4A-4B
Procedure: The plasma stability of Compound (A1) was investigated in mouse, rat, monkey and human plasma and compared to buffer. Both disappearance of Compound (A1) (FIG. 4A) as well as appearance of the ring-opened form of Compound (A1) having the structure of Compound (A4)
[drawing 153] (FIG. 4B) were monitored over 24 h.

[4] = Stability in buffer at pH 5.6 and in lysosomes; type: in vitro ADME; settings: buffer pH 5.6, lysosomes, 4 h, FIG. 5D
Procedure: In vitro stability of Compound (A2) was tested in plasma and blood from different species (FIG. 5A). […]

[5] = PK of Compound (A1) after intravenous dosing in mouse; type: in vivo; settings: for Vd: read-out: Vss
Text: Table 5 summarizing all PK values is shown below.

[6] = Exposure of ADC formats in an in vivo efficacy study and payload ring-opening on the antibody; set-up: species or system mice; settings: formats of G1-(B1), in vivo efficacy study, FIG. 14D
Text: [drawing 156] (filled circles) while being conjugated to the antibody was shown in vivo in mice (FIG. 14C). […] From comparing the PK of the non-targeted 3207-ADCs (FIG. 14E) one can deduce that the Fc-silencing has a significant effect on lowering the clearance of the DAR4 format.

[7] = tested on: 92.1-luciferase subcutaneous xenografts; assay: 92.1-luciferase subcutaneous xenograft tumor growth in female nude mice; type: in vivo; settings: 7.5 mg/kg single dose i.v., FIG. 16
Procedure: Treatment (single dose i.v. injection) was performed 17 days post tumor inoculation. Values are mean±SEM; sample size, (n=5-12 mice per group). Initial tumor volume at day 0 was approximately 200-250 mm^3.
Treatments (single dose i.v. injection) were performed 17 days post tumor inoculation. Values represent mean±SEM; sample size, (n=5-6 mice per group). Initial tumor volume at day 0 was approximately 300-325 mm^3. (FIG. 16).
Treatment (single dose i.v. injection) was performed 14-17 days post tumor inoculation. Values are mean±SEM; sample size, (n=5-12 mice per group). Initial tumor volume at day 0 was approximately 200-250 mm3.

Molecule: C=C1C(=O)N[C@@H](C)C(=O)N(C)[C@@H](C)C(=O)N[C@@H]([C@H](OC(=O)[C@@H](NC(=O)CC)[C@H](O)C(C)C)C(C)C)C(=O)N(C)[C@@H]([C@@H](C)OC)C(=O)O[C@H](C(C)C)[C@H](NC(C)=O)C(=O)O[C@H](Cc2ccccc2)C(=O)N1C [Compound (A1), (R)-1-((3S,6S,9S,12S,18R,21S,22R)-21-acetamido-18-benzyl-22-isopropyl-3-((R)-1-methoxyethyl)-4,9,10,12,16-pentamethyl-15-methylene-2,5,8,11,14,17,20-heptaoxo-1,19-dioxa-4,7,10,13,16-pentaazacyclodocosan-6-yl)-2-methylpropyl (2S,3R)-3-hydroxy-4-methyl-2-propionamidopentanoate] (Ac-[X1][dPhLac][NMeDha]A[NMeA][X1](Leu(3R-OH,Nα-propionyl))[NMeT](Me); ester 1-C)
- GI50 [1]: > 10000 nM
- apoptosis (Annexin V) (92.1 cells): induced apoptosis in UM cells in GNAQ/11 dependent manner
- IP1 levels (GNAQ/11): reduced IP1 levels
- GI50 (92.1 uveal melanoma; 92.1, GNAQ^Q209L, 96 or 120 hours, Table 4, read-out: GI50): 0.18 nM
- GI50 (92.1 uveal melanoma; 92.1 GNAQ^Q209L, Table 1, read-out: GI50 (nM) 92.1GNAQ^Q209L): 0.467 nM
- anti-UM activity (92.1 uveal melanoma; 92.1 vs MIAPACA, FIG. 1): potent target-dependent anti-UM activity
- ERK signaling (immunoblots) (ERK signaling): reduced ERK signaling
- platelet aggregation after TRAP6 [2]: induced platelet aggregation
- transformation of Compound (A1) to ring-opened form in plasma [3]: slightly faster in human plasma
- stability in buffer and lysosomes [4]: stable in buffer at pH 5.6 and in lysosomes over 4 h
- AUCinf/D (nM*h/(mg/kg)) ([5]; 0.2 mg/kg): 82 nM*h/(mg/kg)
- C0/D (nM/(mg/kg)) ([5]; 0.2 mg/kg): 217 nM/(mg/kg)
- Cmax/D (nM/(mg/kg)) ([5]; 0.2 mg/kg): 156 nM/(mg/kg)
- AUCinf/D (nM*h/(mg/kg)) ([5]; 0.4 mg/kg): 118 nM*h/(mg/kg)
- C0/D (nM/(mg/kg)) ([5]; 0.4 mg/kg): 270 nM/(mg/kg)
- Cmax/D (nM/(mg/kg)) ([5]; 0.4 mg/kg): 208 nM/(mg/kg)
- AUCinf/D (nM*h/(mg/kg)) ([5]; 0.8 mg/kg): 171 nM*h/(mg/kg)
- C0/D (nM/(mg/kg)) ([5]; 0.8 mg/kg): 475 nM/(mg/kg)
- Cmax/D (nM/(mg/kg)) ([5]; 0.8 mg/kg): 300 nM/(mg/kg)
- exposure with dose ([5]; 0.2-0.8 mg/kg): slightly over-proportional increase of exposure with dose
- clearance ([5]; FIG. 4D): very high clearance
- volume of distribution ([5]; FIG. 4D): moderate to high volume of distribution
- AUC(0-inf) ([5]; in vivo, 0.2 mg/kg): 16 nM·h
- C0 ([5]; in vivo, 0.2 mg/kg): 0.043 µM
- Cmax ([5]; in vivo, 0.2 mg/kg): 0.031 µM
- clearance ([5]; in vivo, 0.2 mg/kg, read-out: CL): 12.2 L/h/kg
- Vd ([5]; in vivo, 0.2 mg/kg): 8.6 L/kg
- AUC(0-inf) ([5]; in vivo, 0.4 mg/kg): 47 nM·h
- C0 ([5]; in vivo, 0.4 mg/kg): 0.108 µM
- Cmax ([5]; in vivo, 0.4 mg/kg): 0.083 µM
- clearance ([5]; in vivo, 0.4 mg/kg, read-out: CL): 8.46 L/h/kg
- Vd ([5]; in vivo, 0.4 mg/kg): 4.9 L/kg
- AUC(0-inf) ([5]; in vivo, 0.8 mg/kg): 137 nM·h
- C0 ([5]; in vivo, 0.8 mg/kg): 0.38 µM
- Cmax ([5]; in vivo, 0.8 mg/kg): 0.24 µM
- clearance ([5]; in vivo, 0.8 mg/kg, read-out: CL): 5.82 L/h/kg
- Vd ([5]; in vivo, 0.8 mg/kg): 4.6 L/kg

B1: G1-E152C-DAR2-(B1) (conjugate)
heavy: QVQLVQSGAEVKKPGSSVKVSCKASGGTFSDYAITWVRQAPGQGLEWMGGIIPIFGTANYAQKFQGRVTITADESTSTAYMELSSLRSEDTAVYYCAREGGLLTDISYSRYWFAYWGQGTLVTVSS
light: DIELTQPPSVSVSPGQTASITCSGDALRDKFVYWYQQKPGQAPVLVIYDDNNRPSGIPERFSGSNSGNTATLTISGTQAEDEADYYCQSWDHSYSLVVFGGGTKLTVLGQPKAAPSVTLFPPSSEELQANKATLVCLISDFYPGAVTVAWKADSSPVKAGVETTTPSKQSNNKYAASSYLSLTPEQWKSHRSYSCQVTHEGSTVEKTVAPTECS
modifications: left off: a dimerising Fc or GST
- clearance / exposure of ADC formats [6]: lowest clearance
- antitumor activity [7]: comparable antitumor activity
- GI50 (92.1 uveal melanoma; 92.1, Table 10, read-out: GI50): 0.365 nM
